Measured values published in patent US3988456A, “1,2-Diphenylethanolamine derivatives and their salts and the preparation thereof” (Dainippon Pharmaceutical Co., Ltd., priority 1974, dated 1976).
Where a name gives a salt, the structure may show the parent alone.

Tests used:
male mice of ddN strain = experiment: Analgesic activity: D'Amour-Smith method (thermal pain); format: in vivo; details: response time prolonged more than 100 %; for ED50: Mus musculus, sc; for Analgesic ED50 value, D'Amour-Smith method: s.c.
Experimental: i. D'Amour-Smith method (cf. F. E. D'Amour and D. L. Smith, J. Pharmacol., Vol. 72, page 74, 1941)
Thermal pain was induced by radiating heat light on the tail blacked with a black ink of male mice of ddN strain, weighing 9 to 12 g, using the modified apparatus of D'Amour-Smith. The analgesic ED50 -value was calculated from the number of positive animals showing the response time prolonged more than 100 % compared with each before value.

female mice = experiment: Analgesic activity: Phenylquinone method (chemical pain); format: in vivo, mice (ddN strain); details: drugs given 30 minutes before i.p. phenylquinone; for ED50: Mus musculus, po
Experimental: ii. Phenylquinone method (cf. E. Siegmund, R. Cadmus and G. Lu, Proc. Soc. Exptl. Biol. Med., Vol. 95, page 729, 1957)
Chemical pain was induced by an intraperitoneal injection of 0.1 ml/10 g body weight of 0.03 % phenylquinone in 5 % aqueous ethanol in female mice, weighing 18 to 22 g of ddN strain. Drugs were given 30 minutes before challenge of phenylquinone.

Male guinea-pigs = experiment: Anti-tussive activity (coughs by mechanical stimulation); format: in vivo; details: intraperitoneal; for anti-tussive activity: dose of 5-40 mg/kg; for anti-tussive activity compared with codeine phosphate: vs codeine phosphate
Experimental: 2. Anti-tussive activity (cf. K. Takagi, H. Fukuda and K. Yano, Yakugakuzasshi, Vol. 80, page 1497, 1960)
Male guinea-pigs, weighing 350 to 450 g, were used. Coughs were caused by successive mechanical stimulations with whiskers, and anti-tussive effects were evaluated by all or none of the cough. The Test Compounds F and G were intraperitoneally injected.

| Structure (SMILES) | ED50 (male mice of ddN strain) [mg/kg] | ED50 (female mice) [mg/kg] | further results |
| --- | --- | --- | --- |
| Cl.Cl.O=C(c1ccccc1)C(c1ccccc1)N1CCN(Cc2ccccc2)CC1 (racemic) [compound 2, dl-2-Phenyl-2-(4-benzylpiperazin-1-yl)acetophenone dihydrochloride, reference compound] | > 320 | – | – |
| COc1ccc(CN2CCN([C@H](c3ccccc3C)[C@@H](O)c3ccccc3)CC2)cc1 (relative stereo) [Test Compound E, dl-Erythro-1-phenyl-2-(o-tolyl)-2-[4-(p-methoxybenzyl)-piperazin-1-yl]ethanol dihydrochloride] | 65.2 | 30.2 | – |
| COc1ccc(CN2CCN([C@H](c3ccccc3Cl)[C@@H](O)c3ccccc3)CC2)cc1 (relative stereo) [Test Compound B, dl-Erythro-1-phenyl-2-(o-chlorophenyl)-2-[4-(p-methoxybenzyl)piperazin-1-yl]ethanol dihydrochloride] | 55.5 | 45.1 | – |
| COc1ccc(CN2CCN(C(c3ccccc3)C(O)c3ccccc3)CC2)cc1.Cl.Cl (stereo not drawn) [Test Compound F, d-Erythro-1,2-diphenyl-2-[4-(p-methoxybenzyl)piperazin-1-yl]ethanol dihydrochloride] | – | – | Analgesic ED50 value, D'Amour-Smith method (male mice of ddN strain): 37.2 mg/kg; Analgesic ED50 value, Phenylquinone method (female mice; p.o.): 63.2 mg/kg; anti-tussive activity (Male guinea-pigs): excellent anti-tussive activity in a dose of 5-40 mg/kg; anti-tussive activity compared with codeine phosphate (Male guinea-pigs): more potent than that of codeine phosphate |
| COc1ccc(CN2CCN([C@H](c3ccccc3)[C@@H](O)c3cccc(C)c3)CC2)cc1 (relative stereo) [Test Compound G, dl-erythro-1-(m-tolyl)-2-phenyl-2-[4-(p-methoxybenzyl)piperazine-1-yl]ethanol dihydrochloride] | – | – | anti-tussive activity (Male guinea-pigs): excellent anti-tussive activity in a dose of 5-40 mg/kg; anti-tussive activity compared with codeine phosphate (Male guinea-pigs): comparable with that of codeine phosphate |
| COc1ccc(CN2CCN([C@H](c3ccccc3OC)[C@@H](O)c3ccccc3)CC2)cc1 (relative stereo) [Test Compound C, dl-Erythro-1-phenyl-2-(o-methoxyphenyl)-2-[4-(p-methoxybenzyl)piperazin-1-yl]ethanol dihydrochloride] | 32.5 | 28.6 | – |
| Cc1c(N(C)C)c(=O)n(-c2ccccc2)n1C [compound 3, Aminopyrine, reference compound] | 233 | 53.3 | – |
| COc1ccc(CN2CCN([C@H](c3ccccc3)[C@@H](O)c3ccc(Cl)cc3)CC2)cc1 (relative stereo) [Test Compound A, dl-Erythro-1-(p-chlorophenyl)-2-phenyl-2-[4-(p-methoxybenzyl)piperazin-1-yl]ethanol dihydrochloride] | – | 49.9 | – |
| COc1ccc(CN2CCN([C@H](c3ccc(C)cc3)[C@@H](O)c3ccc(C)cc3)CC2)cc1 (relative stereo) [Test Compound D, dl-Erythro-1-(p-tolyl)-2-(p-tolyl)-2-[4-(p-methoxybenzyl)piperazin-1-yl]ethanol dihydrochloride] | 98.6 | 55.6 | – |
| CN1CCN([C@H](c2ccccc2)[C@@H](O)c2ccccc2)CC1 (relative stereo) [compound 1, dl-Erythro-1,2-diphenyl-2-(4-methylpiperazin-1-yl)ethanol dihydrochloride, reference compound] | – | – | Analgesic ED50 value, D'Amour-Smith method (male mice of ddN strain): inactive |
